Data published in PubChem BioAssay (NCI).
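Assay format: 96-well plates, 48-hour exposure. Abbreviation: GI50, concentration required for 50% inhibition of growth. TGI marks complete inhibition of growth.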

How the values were obtained:
Assay in all cases: growth of human tumour cells (NCI), 48 h
UO-31 renal = system: UO-31 renal
NCI-H23 lung = system: NCI-H23 lung
HL-60(TB) leukemia = system: HL-60(TB) leukemia
A498 renal = system: A498 renal
MALME-3M melanoma = system: MALME-3M melanoma
UACC-257 melanoma = system: UACC-257 melanoma
IGROV1 ovarian = system: IGROV1 ovarian
SN12C renal = system: SN12C renal
K-562 leukemia = system: K-562 leukemia
CAKI-1 renal = system: CAKI-1 renal

Cc1ccc(/C=C2\CCOC2=O)cc1
GI50 (UO-31 renal): 41.8 µM | TGI (UO-31 renal): > 100 µM | GI50 (NCI-H23 lung): > 100 µM | TGI (NCI-H23 lung): > 100 µM | GI50 (HL-60(TB) leukemia): > 100 µM | TGI (HL-60(TB) leukemia): > 100 µM | GI50 (A498 renal): 11.8 µM | TGI (A498 renal): 97.3 µM | GI50 (MALME-3M melanoma): > 100 µM | TGI (MALME-3M melanoma): > 100 µM | GI50 (UACC-257 melanoma): > 100 µM | TGI (UACC-257 melanoma): > 100 µM | GI50 (IGROV1 ovarian): 82.5 µM | TGI (IGROV1 ovarian): > 100 µM | GI50 (SN12C renal): > 100 µM | TGI (SN12C renal): > 100 µM | GI50 (K-562 leukemia): > 100 µM | TGI (K-562 leukemia): > 100 µM

COc1ccc(/C=C(/C(=O)N2CCNCC2)c2cc(OC)c(OC)c(OC)c2)cc1O
GI50 (UO-31 renal): 55.5 µM | TGI (UO-31 renal): > 100 µM | GI50 (NCI-H23 lung): 5.16 µM | TGI (NCI-H23 lung): > 100 µM | GI50 (HL-60(TB) leukemia): 1.87 µM | TGI (HL-60(TB) leukemia): 5.5 µM | GI50 (A498 renal): 1.22 µM | TGI (A498 renal): 7.33 µM | GI50 (UACC-257 melanoma): 33.7 µM | TGI (UACC-257 melanoma): > 100 µM | GI50 (IGROV1 ovarian): 6.73 µM | TGI (IGROV1 ovarian): > 100 µM | GI50 (CAKI-1 renal): > 100 µM | TGI (CAKI-1 renal): > 100 µM | GI50 (SN12C renal): 7.86 µM | TGI (SN12C renal): > 100 µM | GI50 (K-562 leukemia): 1.6 µM | TGI (K-562 leukemia): > 100 µM

Cc1ccccc1NC(=O)NC(CC(N)=O)c1ccc2c(c1)nc(-c1cccc(Oc3ccc(C(C)(C)C)cc3)c1)n2CCCN1CCCCC1C (stereo not drawn)
GI50 (UO-31 renal): 16.4 µM | TGI (UO-31 renal): 31.9 µM | GI50 (NCI-H23 lung): 4.89 µM | TGI (NCI-H23 lung): 9.91 µM | GI50 (A498 renal): 5.91 µM | TGI (A498 renal): 13.4 µM | GI50 (MALME-3M melanoma): 1.88 µM | TGI (MALME-3M melanoma): 3.98 µM | GI50 (UACC-257 melanoma): 1.86 µM | TGI (UACC-257 melanoma): 3.49 µM | GI50 (IGROV1 ovarian): 3.25 µM | TGI (IGROV1 ovarian): 9.82 µM | GI50 (CAKI-1 renal): 17.2 µM | TGI (CAKI-1 renal): 42.8 µM | GI50 (SN12C renal): 4.49 µM | TGI (SN12C renal): 11.1 µM

Cc1ccc(Cl)cc1Nc1nc(C(F)(F)F)ccc1C(=O)Oc1ccc(Cl)cc1
GI50 (UO-31 renal): 16 µM | TGI (UO-31 renal): 41.8 µM | GI50 (NCI-H23 lung): 11.7 µM | TGI (NCI-H23 lung): 27.8 µM | GI50 (A498 renal): 11.9 µM | TGI (A498 renal): 33.2 µM | GI50 (UACC-257 melanoma): 39.3 µM | TGI (UACC-257 melanoma): > 100 µM | GI50 (IGROV1 ovarian): 11.1 µM | TGI (IGROV1 ovarian): > 100 µM | GI50 (CAKI-1 renal): 3.31 µM | TGI (CAKI-1 renal): 13.2 µM | GI50 (SN12C renal): 14.5 µM | TGI (SN12C renal): 43.8 µM | GI50 (K-562 leukemia): 4.37 µM | TGI (K-562 leukemia): 15 µM

CC(=O)O[C@H]1CC[C@@]2(C)C(=CC[C@@H]3C2CC[C@]2(C)Nc4oncc4CC32)C1 (stereo partly drawn)
TGI (UO-31 renal): 70.7 µM | TGI (NCI-H23 lung): > 100 µM | TGI (HL-60(TB) leukemia): 31.9 µM | TGI (A498 renal): > 100 µM | TGI (MALME-3M melanoma): 82.2 µM | TGI (UACC-257 melanoma): > 100 µM | TGI (IGROV1 ovarian): > 100 µM | TGI (CAKI-1 renal): > 100 µM | TGI (K-562 leukemia): 21.1 µM

COc1cc2c(/C=C3\C(=O)Nc4ccc(Br)cc43)c(Cl)n(C)c2cc1C
GI50 (UO-31 renal): 2.46 µM | TGI (UO-31 renal): 11.3 µM | GI50 (NCI-H23 lung): 2.78 µM | TGI (NCI-H23 lung): 13 µM | GI50 (HL-60(TB) leukemia): 3.09 µM | TGI (HL-60(TB) leukemia): 16.9 µM | GI50 (A498 renal): 0.419 µM | TGI (A498 renal): 1.62 µM | GI50 (MALME-3M melanoma): 2.75 µM | TGI (MALME-3M melanoma): 10 µM | GI50 (UACC-257 melanoma): 7.56 µM | TGI (UACC-257 melanoma): 31 µM | GI50 (CAKI-1 renal): 2.26 µM | TGI (CAKI-1 renal): 7.3 µM | GI50 (SN12C renal): 3.05 µM | TGI (SN12C renal): 11.4 µM | GI50 (K-562 leukemia): 1.96 µM | TGI (K-562 leukemia): > 29.2 µM

CN(C)/[N+]([O-])=N/Oc1cc(Nc2ccc(C(=O)O)cc2)c([N+](=O)[O-])cc1[N+](=O)[O-]
GI50 (UO-31 renal): 25.6 µM | TGI (UO-31 renal): 67.3 µM | GI50 (NCI-H23 lung): 20.3 µM | TGI (NCI-H23 lung): 40.9 µM | GI50 (HL-60(TB) leukemia): 18.5 µM | TGI (HL-60(TB) leukemia): 58.8 µM | GI50 (UACC-257 melanoma): 19.4 µM | TGI (UACC-257 melanoma): 35.5 µM | GI50 (IGROV1 ovarian): 14.9 µM | TGI (IGROV1 ovarian): 34.4 µM | GI50 (CAKI-1 renal): 22.1 µM | TGI (CAKI-1 renal): 51.7 µM | GI50 (SN12C renal): 18.6 µM | TGI (SN12C renal): 33.6 µM | GI50 (K-562 leukemia): 38.2 µM | TGI (K-562 leukemia): > 100 µM

O=[N+]([O-])c1ccc2[nH]cc(-c3c4ccccc4cc4[nH]c5ccc([N+](=O)[O-])cc5c34)c2c1
GI50 (UO-31 renal): 1.76 µM | TGI (UO-31 renal): 5.1 µM | GI50 (NCI-H23 lung): 2.59 µM | TGI (NCI-H23 lung): 8.11 µM | GI50 (A498 renal): 1.53 µM | TGI (A498 renal): 4.25 µM | GI50 (MALME-3M melanoma): 2.32 µM | TGI (MALME-3M melanoma): 6.77 µM | GI50 (UACC-257 melanoma): 2.45 µM | TGI (UACC-257 melanoma): 7.13 µM | GI50 (IGROV1 ovarian): 2.15 µM | TGI (IGROV1 ovarian): 4.68 µM | GI50 (CAKI-1 renal): 1.8 µM | TGI (CAKI-1 renal): 3.64 µM | GI50 (SN12C renal): 2.84 µM | TGI (SN12C renal): 7.92 µM | GI50 (K-562 leukemia): 3.5 µM | TGI (K-562 leukemia): > 100 µM

N#C/C(=C/N1CCN(C(=O)c2ccco2)C1=S)C(N)=O
GI50 (UO-31 renal): 23.5 µM | TGI (UO-31 renal): 51.8 µM | GI50 (NCI-H23 lung): 21.4 µM | TGI (NCI-H23 lung): 44 µM | GI50 (HL-60(TB) leukemia): 22 µM | TGI (HL-60(TB) leukemia): 57.3 µM | GI50 (MALME-3M melanoma): 12.5 µM | TGI (MALME-3M melanoma): 56.8 µM | GI50 (UACC-257 melanoma): 23.3 µM | TGI (UACC-257 melanoma): 50.8 µM | GI50 (IGROV1 ovarian): 24 µM | TGI (IGROV1 ovarian): 86.8 µM | GI50 (CAKI-1 renal): 11.8 µM | TGI (CAKI-1 renal): 34.4 µM | GI50 (SN12C renal): 12 µM | TGI (SN12C renal): 32.2 µM | GI50 (K-562 leukemia): 9.13 µM | TGI (K-562 leukemia): > 100 µM

NS(=O)(=O)c1ccc(-n2nc(-c3ccc(Cl)cc3)cc2C2=CC(=O)C=CC2=O)cc1
GI50 (UO-31 renal): 41.7 µM | TGI (UO-31 renal): > 100 µM | GI50 (NCI-H23 lung): 18 µM | TGI (NCI-H23 lung): 42.1 µM | GI50 (HL-60(TB) leukemia): 34 µM | TGI (HL-60(TB) leukemia): > 100 µM | GI50 (A498 renal): 22.8 µM | TGI (A498 renal): 70.2 µM | GI50 (UACC-257 melanoma): 19.9 µM | TGI (UACC-257 melanoma): 42.9 µM | GI50 (IGROV1 ovarian): 39.6 µM | TGI (IGROV1 ovarian): > 100 µM | GI50 (CAKI-1 renal): 25.2 µM | TGI (CAKI-1 renal): 48.5 µM | GI50 (SN12C renal): 19.7 µM | TGI (SN12C renal): 36.5 µM | GI50 (K-562 leukemia): 19.4 µM | TGI (K-562 leukemia): 74.1 µM

C=C1C(=O)O[C@H]2[C@H]1CC/C(Cn1cc(CCC)nn1)=C\CC[C@@]1(C)O[C@@H]21
GI50 (UO-31 renal): 11.1 µM | TGI (UO-31 renal): 24.6 µM | GI50 (NCI-H23 lung): 13.6 µM | TGI (NCI-H23 lung): 32 µM | GI50 (HL-60(TB) leukemia): 3.53 µM | TGI (HL-60(TB) leukemia): 15.3 µM | GI50 (A498 renal): 21.5 µM | TGI (A498 renal): 36.6 µM | GI50 (MALME-3M melanoma): 4.7 µM | TGI (MALME-3M melanoma): 18.4 µM | GI50 (IGROV1 ovarian): 4.63 µM | TGI (IGROV1 ovarian): 20.2 µM | GI50 (CAKI-1 renal): 3.91 µM | TGI (CAKI-1 renal): 16.2 µM | GI50 (SN12C renal): 12.1 µM | TGI (SN12C renal): 29.4 µM | GI50 (K-562 leukemia): 3.96 µM | TGI (K-562 leukemia): 29.8 µM

Cc1c2c(nn1-c1ccc(S/N=C3\SCC(=O)CN3c3ccccc3)cc1)-c1ccccc1CC2
GI50 (UO-31 renal): 28.4 µM | TGI (UO-31 renal): > 50 µM | GI50 (NCI-H23 lung): 32.3 µM | TGI (NCI-H23 lung): > 50 µM | GI50 (HL-60(TB) leukemia): > 50 µM | TGI (HL-60(TB) leukemia): > 50 µM | GI50 (MALME-3M melanoma): > 50 µM | TGI (MALME-3M melanoma): > 50 µM | GI50 (UACC-257 melanoma): 45.3 µM | TGI (UACC-257 melanoma): > 50 µM | GI50 (IGROV1 ovarian): 8.31 µM | TGI (IGROV1 ovarian): 21.4 µM | GI50 (CAKI-1 renal): 18.1 µM | TGI (CAKI-1 renal): > 50 µM | GI50 (SN12C renal): 17.8 µM | TGI (SN12C renal): > 50 µM | GI50 (K-562 leukemia): 17.6 µM | TGI (K-562 leukemia): > 50 µM

O=C1c2cc3c(cc2-c2c1c1ccc([N+](=O)[O-])cc1c(=O)n2CCCCl)OCO3
GI50 (UO-31 renal): 0.307 µM | TGI (UO-31 renal): > 100 µM | GI50 (NCI-H23 lung): 0.285 µM | GI50 (HL-60(TB) leukemia): 0.328 µM | TGI (HL-60(TB) leukemia): > 28.8 µM | GI50 (A498 renal): 0.367 µM | TGI (A498 renal): 5.93 µM | GI50 (CAKI-1 renal): 0.0268 µM | TGI (CAKI-1 renal): 76.6 µM | GI50 (SN12C renal): 0.0862 µM | TGI (SN12C renal): 0.503 µM | TGI (K-562 leukemia): > 100 µM
